Patent US12558357B2, “Tetrahydroquinazoline derivatives as selective cytotoxic agents” (Merck Sharp & Dohme LLC, priority 2020, dated 2026)
Read-outs that look alike come from different tables or passages of the source.

System: PBMCs infected with VSV-G pseudotyped HIV virus (VSV-G/pNLG1-P2A-ΔEnv)
Assay: cells
Assay type: cell-based, human
Conditions: read-out: EC50 (HIV-TACK cell kill activity)

Row | SMILES | EC50 (Homo sapiens, PBMC) [nM] | EC50 (2,2,2-trifluoroacetate) [nM]
1 | N#Cc1cc(=O)n(Cc2ccc3c(c2)NC(=O)N[C@]3(C#CC2CC2)C(F)(F)F)cn1 [Example 27, (S)-1-((4-(cyclopropylethynyl)-2-oxo-4-(trifluoromethyl)-1,2,3,4-tetrahydroquinazolin-7-yl)methyl)-6-oxo-1,6-dihydropyrimidine-4-carbonitrile] | 190 | 
2 | Nc1cc(=O)n(Cc2ccc3c(c2)NC(=O)N[C@]3(C#CC2CC2)C(F)(F)F)cn1 [Example 28, (S)-7-((4-amino-6-oxopyrimidin-1(6H)-yl)methyl)-4-(cyclopropylethynyl)-4-(trifluoromethyl)-3,4-dihydroquinazolin-2(1H)-one] | 171 | 
3 | O=C1Nc2cc(Cn3nc(Cl)ccc3=O)ccc2[C@@](C#CC2CC2)(C(F)(F)F)N1 [Example 29, (S)-7-((3-chloro-6-oxopyridazin-1(6H)-yl)methyl)-4-(cyclopropylethynyl)-4-(trifluoromethyl)-3,4-dihydroquinazolin-2(1H)-one] | 161 | 
4 | Cc1cnc(N)c(=O)n1Cc1ccc2c(c1)NC(=O)N[C@]2(C#CC1CC1)C(F)(F)F [Example 30, (S)-7-((3-amino-6-methyl-2-oxopyrazin-1(2H)-yl)methyl)-4-(cyclopropylethynyl)-4-(trifluoromethyl)-3,4-dihydroquinazolin-2(1H)-one] | 152 | 
5 | COCc1cc(=O)n(Cc2ccc3c(c2)NC(=O)N[C@]3(C#CC2CC2)C(F)(F)F)cn1 [Example 31, (S)-4-(cyclopropylethynyl)-7-((4-(methoxymethyl)-6-oxopyrimidin-1(6H)-yl)methyl)-4-(trifluoromethyl)-3,4-dihydroquinazolin-2(1H)-one] | 146 | 
6 | Nc1cc(=O)n(Cc2ccc3c(c2)NC(=O)N[C@]3(C#CC2CC2)C(F)(F)F)cn1 [Example 32, (S)-1-((4-(cyclopropylethynyl)-2-oxo-4-(trifluoromethyl)-1,2,3,4-tetrahydroquinazolin-7-yl)methyl)-6-oxo-1,6-dihydropyrimidin-4-aminium 2,2,2-trifluoroacetate] |  | 141
7 | Nc1c(C(F)(F)F)ncn(Cc2ccc3c(c2)NC(=O)N[C@]3(C#CC2CC2)C(F)(F)F)c1=O [Example 33, (S)-7-((5-amino-6-oxo-4-(trifluoromethyl)pyrimidin-1(6H)-yl)methyl)-4-(cyclopropylethynyl)-4-(trifluoromethyl)-3,4-dihydroquinazolin-2(1H)-one] | 126 | 
8 | Cc1cc(=O)n(Cc2ccc3c(c2)NC(=O)N[C@]3(C#CC2CC2)C(F)(F)F)cn1 [Example 34, (S)-4-(cyclopropylethynyl)-7-((4-methyl-6-oxopyrimidin-1(6H)-yl)methyl)-4-(trifluoromethyl)-3,4-dihydroquinazolin-2(1H)-one] | 117 | 
9 | O=C1Nc2cc(Cn3cnc(Cl)cc3=O)ccc2[C@@](C#CC2CC2)(C(F)(F)F)N1 [Example 35, (S)-7-((4-chloro-6-oxopyrimidin-1(6H)-yl)methyl)-4-(cyclopropylethynyl)-4-(trifluoromethyl)-3,4-dihydroquinazolin-2(1H)-one] | 101 | 
10 | O=C1Nc2cc(Cn3cnc(C(F)F)cc3=O)ccc2[C@@](C#CC2CC2)(C(F)(F)F)N1 [Example 36, (S)-4-(cyclopropylethynyl)-7-((4-(difluoromethyl)-6-oxopyrimidin-1(6H)-yl)methyl)-4-(trifluoromethyl)-3,4-dihydroquinazolin-2(1H)-one] | 101 | 
11 | Nc1cncn(Cc2ccc3c(c2)NC(=O)N[C@]3(C#CC2CC2)C(F)(F)F)c1=O [Example 37, (S)-1-((4-(cyclopropylethynyl)-2-oxo-4-(trifluoromethyl)-1,2,3,4-tetrahydroquinazolin-7-yl)methyl)-6-oxo-1,6-dihydropyrimidin-5-aminium 2,2,2-trifluoroacetate] | 89 | 
12 | O=C1Nc2cc(Cn3cnc(C(F)(F)F)cc3=O)c(F)cc2[C@@](C#CC2CC2)(C(F)(F)F)N1 [Example 38, (S)-4-(cyclopropylethynyl)-6-fluoro-7-((6-oxo-4-(trifluoromethyl)pyrimidin-1(6H)-yl)methyl)-4-(trifluoromethyl)-3,4-dihydroquinazolin-2(1H)-one] | 87 | 
13 | Nc1cccn(Cc2cc3c(cc2F)[C@@](C#CC2CC2)(C(F)(F)F)NC(=O)N3)c1=O [Example 39, (S)-7-((3-amino-2-oxopyridin-1(2H)-yl)methyl)-4-(cyclopropylethynyl)-6-fluoro-4-(trifluoromethyl)-3,4-dihydroquinazolin-2(1H)-one] | 72 | 
14 | Nc1c(Cl)ncn(Cc2ccc3c(c2)NC(=O)N[C@]3(C#CC2CC2)C(F)(F)F)c1=O [Example 40, (S)-7-((5-amino-4-chloro-6-oxopyrimidin-1(6H)-yl)methyl)-4-(cyclopropylethynyl)-4-(trifluoromethyl)-3,4-dihydroquinazolin-2(1H)-one] | 65 | 
15 | Nc1cc(=O)n(Cc2cc3c(cc2F)[C@@](C#CC2CC2)(C(F)(F)F)NC(=O)N3)cn1 [Example 41, (S)-7-((4-amino-6-oxopyrimidin-1(6H)-yl)methyl)-4-(cyclopropylethynyl)-6-fluoro-4-(trifluoromethyl)-3,4-dihydroquinazolin-2(1H)-one] | 60 | 
16 | O=C1Nc2cc(Cn3cnc(C(F)(F)F)cc3=O)c(Cl)cc2[C@@](C#CC2CC2)(C(F)(F)F)N1 [Example 42, (S)-6-chloro-4-(cyclopropylethynyl)-7-((6-oxo-4-(trifluoromethyl)pyrimidin-1(6H)-yl)methyl)-4-(trifluoromethyl)-3,4-dihydroquinazolin-2(1H)-one] | 52 | 
17 | Cc1cc(=O)n(Cc2cc3c(cc2F)[C@@](C#CC2CC2)(C(F)(F)F)NC(=O)N3)cn1 [Example 43, (S)-4-(cyclopropylethynyl)-6-fluoro-7-((4-methyl-6-oxopyrimidin-1(6H)-yl)methyl)-4-(trifluoromethyl)-3,4-dihydroquinazolin-2(1H)-one] | 50 | 
18 | O=C1Nc2cc(Cn3cnc(Cl)cc3=O)c(F)cc2[C@@](C#CC2CC2)(C(F)(F)F)N1 [Example 44, (S)-7-((4-chloro-6-oxopyrimidin-1(6H)-yl)methyl)-4-(cyclopropylethynyl)-6-fluoro-4-(trifluoromethyl)-3,4-dihydroquinazolin-2(1H)-one] | 47 | 
19 | Nc1nccn(Cc2cc3c(cc2Br)[C@@](C#CC2CC2)(C(F)(F)F)NC(=O)N3)c1=O [Example 45, (S)-7-((3-amino-2-oxopyrazin-1(2H)-yl)methyl)-6-bromo-4-(cyclopropylethynyl)-4-(trifluoromethyl)-3,4-dihydroquinazolin-2(1H)-one] | 50 | 
20 | CN1C(=O)Nc2cc(Cn3ccnc(N)c3=O)ccc2[C@@]1(C#CC1CC1)C(F)(F)F [Example 46, (S)-7-((3-amino-2-oxopyrazin-1(2H)-yl)methyl)-4-(cyclopropylethynyl)-3-methyl-4-(trifluoromethyl)-3,4-dihydroquinazolin-2(1H)-one] | 101 | 
21 | Cc1cn(Cc2ccc3c(c2)NC(=O)N[C@]3(C#CC2CC2)C(F)(F)F)c(=O)[nH]c1=O [Example 47, (S)-1-((4-(cyclopropylethynyl)-2-oxo-4-(trifluoromethyl)-1,2,3,4-tetrahydroquinazolin-7-yl)methyl)-5-methylpyrimidine-2,4(1H,3H)-dione] | 135 | 
22 | CC(F)(F)[C@@]1(C#CC2CC2)NC(=O)Nc2cc(Cn3cnccc3=O)c(Cl)cc21 [Example 48, (S)-6-chloro-4-(cyclopropylethynyl)-4-(1,1-difluoroethyl)-7-((6-oxopyrimidin-1(6H)-yl)methyl)-3,4-dihydroquinazolin-2(1H)-one] | 12 | 
23 | O=C1Nc2c(cc(F)c(Cn3cnccc3=O)c2F)[C@@](C#CC2CC2)(C(F)(F)F)N1 [Example 49, (S)-4-(cyclopropylethynyl)-6,8-difluoro-7-((6-oxopyrimidin-1(6H)-yl)methyl)-4-(trifluoromethyl)-3,4-dihydroquinazolin-2(1H)-one] | 96 | 
24 | CC(F)(F)[C@@]1(C#CC2CC2)NC(=O)Nc2cc(Cn3ncccc3=O)c(F)cc21 [Example 50, (S)-4-(cyclopropylethynyl)-4-(1,1-difluoroethyl)-6-fluoro-7-((6-oxopyridazin-1(6H)-yl)methyl)-3,4-dihydroquinazolin-2(1H)-one] | 32 | 
25 | Cc1ccc(=O)n(Cc2cc3c(cc2F)[C@@](C#CC2CC2)(C(C)(F)F)NC(=O)N3)n1 [Example 51, (S)-4-(cyclopropylethynyl)-4-(1,1-difluoroethyl)-6-fluoro-7-((3-methyl-6-oxopyridazin-1(6H)-yl)methyl)-3,4-dihydroquinazolin-2(1H)-one] | 54 | 
26 | CC(F)(F)[C@@]1(C#CC2CC2)NC(=O)Nc2cc(Cn3ccnc(N)c3=O)ccc21 [Example 53, (S)-7-((3-amino-2-oxopyrazin-1(2H)-yl)methyl)-4-(cyclopropylethynyl)-4-(1,1-difluoroethyl)-3,4-dihydroquinazolin-2(1H)-one] | 18 | 
27 | O=C1Nc2cc(Cn3ccc(=O)[nH]c3=O)ccc2[C@@](C#CC2CC2)(C(F)(F)F)N1 [Example 54, (S)-1-((4-(cyclopropylethynyl)-2-oxo-4-(trifluoromethyl)-1,2,3,4-tetrahydroquinazolin-7-yl)methyl)pyrimidine-2,4(1H,3H)-dione] | 284 | 
28 | CC(F)(F)[C@@]1(C#CC2CC2)NC(=O)Nc2cc(Cn3cnccc3=O)ccc21 [Example 55, (S)-4-(cyclopropylethynyl)-4-(1,1-difluoroethyl)-7-((6-oxopyrimidin-1(6H)-yl)methyl)-3,4-dihydroquinazolin-2(1H)-one] | 96 | 
29 | O=C1Nc2cc(Cn3cnccc3=O)c(Cl)cc2[C@@](C#CC2CC2)(C(F)(F)F)N1 [Example 56, (S)-6-chloro-4-(cyclopropylethynyl)-7-((6-oxopyrimidin-1(6H)-yl)methyl)-4-(trifluoromethyl)-3,4-dihydroquinazolin-2(1H)-one] | 35 | 
30 | N#Cc1ncn(Cc2ccc3c(c2)NC(=O)N[C@]3(C#CC2CC2)C(F)(F)F)c(=O)c1N [Example 57, (S)-5-amino-1-((4-(cyclopropylethynyl)-2-oxo-4-(trifluoromethyl)-1,2,3,4-tetrahydroquinazolin-7-yl)methyl)-6-oxo-1,6-dihydropyrimidine-4-carbonitrile] | 127 | 
